Among the data in PMC9252148 (IUCrJ, 2022) are IC50 values, retold here.

One test concerns the target T1, MOPV NP-exo (Mammarenavirus mopeiaense, UniProt P19239).
T1 construct: gene N
The settings on record: 5 mM MnCl2, pH 8.0, 310 K, 5 min, 0.25 µM enzyme, 1.5 µM HP4 RNA; Mn2+-dependent; acts by metal-ion chelation.

For another test, the target named is T2, LCMV NP-exo (Lymphocytic choriomeningitis virus (strain Armstrong), UniProt P09992).
T2 construct: gene N
T2 sequence (P09992 357-558 limits assumed): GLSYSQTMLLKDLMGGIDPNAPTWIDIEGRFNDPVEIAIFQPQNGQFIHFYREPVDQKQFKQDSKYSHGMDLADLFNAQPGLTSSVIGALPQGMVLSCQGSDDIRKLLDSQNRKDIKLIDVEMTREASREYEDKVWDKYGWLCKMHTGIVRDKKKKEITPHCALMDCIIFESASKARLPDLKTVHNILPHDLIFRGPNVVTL

T1 sequence (P19239 365-570 limits assumed): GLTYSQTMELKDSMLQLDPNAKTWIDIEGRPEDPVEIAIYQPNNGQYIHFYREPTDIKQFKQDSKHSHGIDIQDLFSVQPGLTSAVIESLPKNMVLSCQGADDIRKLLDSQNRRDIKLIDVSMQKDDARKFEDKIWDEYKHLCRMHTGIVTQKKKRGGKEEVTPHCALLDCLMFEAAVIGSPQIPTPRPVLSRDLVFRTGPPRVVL

For orientation: IC50 means the midpoint of a concentration-inhibition curve. A high value points to lower potency. For alendronate, the IC50 against MOPV NP-exo is 65.9 ± 1.7 µM; against LCMV NP-exo, 68.6 ± 4.2 µM.
